Measured values published in the NIST ThermoML archive (doi:10.1021/je100788g).

Tests used:
[1] = refractive index (Na D-line) (dimensionless); conditions: 298.15 K; 101.33 kPa; Liquid; Standard Abbe refractometry
[2] = Vibrating tube method
[3] = xn = mol fraction of the nth substance listed; conditions: 313.15 K, Fluid (supercritical or subcritical phases), Vibrating tube method

CCCCO [butan-1-ol]
Conditions | refractive index
[1] | 1.3973

[2], Liquid
Conditions | mass density [kg/m3]
298.15 K, 101.33 kPa | 805.8
313.15 K, 1000 kPa | 794.9
313.15 K, 2000 kPa | 795.6
313.15 K, 3000 kPa | 796.3
313.15 K, 4000 kPa | 797
313.15 K, 5000 kPa | 797.6
313.15 K, 6000 kPa | 798.3
313.15 K, 7000 kPa | 798.9
313.15 K, 8000 kPa | 799.6
313.15 K, 9000 kPa | 800.2
313.15 K, 10000 kPa | 800.9

CCCCO [butan-1-ol] + O=C=O
[3]
Conditions | mass density [kg/m3]
1000 kPa, x2 = 0 | 794.9
2000 kPa, x2 = 0 | 795.6
2000 kPa, x2 = 0.103 | 802.2
3000 kPa, x2 = 0 | 796.3
3000 kPa, x2 = 0.103 | 803
4000 kPa, x2 = 0 | 797
4000 kPa, x2 = 0.103 | 803.8
4000 kPa, x2 = 0.204 | 810.6
5000 kPa, x2 = 0 | 797.6
5000 kPa, x2 = 0.103 | 804.6
5000 kPa, x2 = 0.204 | 811.6
5000 kPa, x2 = 0.3 | 817
6000 kPa, x2 = 0 | 798.3
6000 kPa, x2 = 0.103 | 805.4
6000 kPa, x2 = 0.204 | 812.4
6000 kPa, x2 = 0.3 | 818.1
7000 kPa, x2 = 0 | 798.9
7000 kPa, x2 = 0.103 | 806.2
7000 kPa, x2 = 0.204 | 813.4
7000 kPa, x2 = 0.3 | 819.1
7000 kPa, x2 = 0.404 | 825.1
7000 kPa, x2 = 0.503 | 829.1
8000 kPa, x2 = 0 | 799.6
8000 kPa, x2 = 0.103 | 806.9
8000 kPa, x2 = 0.204 | 814.3
8000 kPa, x2 = 0.3 | 820.2
8000 kPa, x2 = 0.404 | 826.5
8000 kPa, x2 = 0.503 | 830.9
8000 kPa, x2 = 0.6 | 830.9
8000 kPa, x2 = 0.703 | 824.9
9000 kPa, x2 = 0 | 800.2
9000 kPa, x2 = 0.103 | 807.7
9000 kPa, x2 = 0.204 | 815.2
9000 kPa, x2 = 0.3 | 821.2
9000 kPa, x2 = 0.404 | 827.8
9000 kPa, x2 = 0.503 | 832.6
9000 kPa, x2 = 0.6 | 833.4
9000 kPa, x2 = 0.703 | 829.1
9000 kPa, x2 = 0.802 | 810.5
9000 kPa, x2 = 0.9 | 762.6
9000 kPa, x2 = 0.95 | 704.5
10000 kPa, x2 = 0 | 800.9
10000 kPa, x2 = 0.103 | 808.4
10000 kPa, x2 = 0.204 | 816.1
10000 kPa, x2 = 0.3 | 822.3
10000 kPa, x2 = 0.404 | 829.1
10000 kPa, x2 = 0.503 | 834.3
10000 kPa, x2 = 0.6 | 835.8
10000 kPa, x2 = 0.703 | 833.1
10000 kPa, x2 = 0.802 | 817.8
10000 kPa, x2 = 0.9 | 779.1
10000 kPa, x2 = 0.95 | 735.5

O=C=O [carbon dioxide]
[2], 313.15 K, Fluid (supercritical or subcritical phases)
Conditions | mass density [kg/m3]
1000 kPa | 17.9
2000 kPa | 37.1
3000 kPa | 58.7
4000 kPa | 83.5
5000 kPa | 112.7
6000 kPa | 148.8
7000 kPa | 197.3
8000 kPa | 276.7
9000 kPa | 483.4
10000 kPa | 627.4

O=C=O [carbon dioxide] + CCCCO
[3], x1 = 1
Conditions | mass density [kg/m3]
1000 kPa | 17.9
2000 kPa | 37.1
3000 kPa | 58.7
4000 kPa | 83.5
5000 kPa | 112.7
6000 kPa | 148.8
7000 kPa | 197.3
8000 kPa | 276.7
9000 kPa | 483.4
10000 kPa | 627.4
